Assay results from patent US7056940B2, “Insecticidal 3-(2,6-disubstituted phenyl)-5-[5-arylthien-2-yl]-1,2,4-triazoles” (Dow AgroSciences LLC, priority 2001, dated 2006).

Key:
Format in all cases: in vivo
[1] = test system: Sweetpotato Whitefly (Bemisia tabacia); test: Insecticidal test for sweetpotato whitefly, spray on cotton plants; set-up: key: A: 90–100; B: 80–89; C: 70–79; D: 60–69; E: 50–59; F: less than 50; G: Inactive; conditions: 200 ppm spray, 13 days, large nymphs
Procedure, shortened: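 Five-week cotton plants trimmed to two leaves carried 2 days of whitefly oviposition, then adults were removed. Leaves were sprayed top and bottom with 200 ppm compound in water with 0.05% Tween 20 (acetone:ethanol co-solvent), four replicates. After 13 days at 28° C/60% RH, 3rd–4th instar nymphs were counted; percent control versus solvent-only sprayed plants.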

[2] = test system: Cabbage Looper (Trichoplusia ni); test: Insecticidal test for cabbage looper, treated cabbage leaf disc; set-up: key: A: 90–100; B: 80–89; C: 70–79; D: 60–69; E: 50–59; F: less than 50; G: Inactive; conditions: cabbage leaf-dip, 2nd instar larvae, 5 days
[3] = test system: Cotton Aphid (Aphis gossypii); test: Insecticidal test for cotton aphid, spray on infested squash cotyledons; conditions: 50 ppm spray, 3 days
Procedure, shortened: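 Squash cotyledons were infested with all aphid life stages 16–20 h beforehand, then sprayed on both sides to runoff with 50 ppm compound (acetone:ethanol, 0.05% Tween 20). After 3 days at 26 °C and 40% RH, aphids were counted under a microscope, and percent control is population reduction versus untreated.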

[4] = test system: Tobacco Budworm (Heliothis virescens); test: Insecticidal test for tobacco budworm, treated cotton cotyledon leaf disc; set-up: key: A: 90–100; B: 80–89; C: 70–79; D: 60–69; E: 50–59; F: less than 50; G: Inactive; conditions: cotton cotyledon leaf-dip, 2nd instar larvae, 5 days
[5] = test system: Beet Armyworm (Spodoptera exigua); test: Insecticidal test for beet armyworm, treated lepidopteran diet; set-up: key: A: 90–100; B: 80–89; C: 70–79; D: 60–69; E: 50–59; F: less than 50; G: Inactive; conditions: on diet surface, second-instar larvae, 5 days
Procedure, shortened: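 Test compound formulated at 400 ppm in 2:1 acetone:tap water; 250 μL applied onto surface of modified Shorey lepidopteran diet, five cups per compound (one cup = one replicate). After solvent air-dried, one second-instar larva placed on treated diet per cup.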

[6] = test system: Two-spotted Spider Mite (Tetranychus urticae); test: Insecticidal test for two-spotted spider mite, ovicide method; set-up: key: A: 90–100; B: 80–89; C: 70–79; D: 60–69; E: 50–59; F: less than 50; G: Inactive; conditions: cotton leaf discs, 6 days
Procedure, shortened: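 Cotton leaf discs (eight, 2.2 cm each) received ten adult female two-spotted spider mites, which laid eggs for 24 hours before being taken off. The discs were then set on an agar substrate and kept at 24° C. and 90% RH for 6 days to assess ovicidal control.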

Row | Structure (SMILES) | WF: activity at 200 ppm against whitefly (% control rating) [1] | CL: activity at 400 ppm against cabbage looper (% control rating) [2] | CA: activity at 50 ppm against cotton aphid (% control rating) [3] | TBW: activity at 400 ppm against tobacco budworm (% control rating) [4] | BAW: activity at 400 ppm against beet armyworm (% control rating) [5] | SM: activity against two-spotted spider mite (% control rating) [6]
1 | Cc1cc(-c2ccc(OC(F)(F)C(F)C(F)(F)F)cc2)sc1-c1nc(-c2c(F)cccc2Cl)nn1C (stereo not drawn) | F (less than 50) | A (90–100) | B (80–89) | A (90–100) | A (90–100) | A (90–100)
2 | Cc1c(-c2nc(-c3c(F)cccc3Cl)nn2C)csc1-c1ccc(OC(F)(F)C(F)C(F)(F)F)cc1 (stereo not drawn) [drawing 216] | A (90–100) | A (90–100) | D (60–69) | A (90–100) | A (90–100) | B (80–89)
3 | Cc1sc(-c2cccc(OC(F)(F)F)c2)cc1-c1nc(-c2c(F)cccc2Cl)nn1C | F (less than 50) | A (90–100) | A (90–100) | G | G | A (90–100)
4 | COCCOc1cccc(-c2cc(C)c(-c3nc(-c4c(F)cccc4Cl)nn3C)s2)c1 | G | G | B (80–89) | F (less than 50) | F (less than 50) | C (70–79)
5 | Cn1nc(-c2c(F)cccc2Cl)nc1-c1sc(-c2ccc(OC(F)(F)C(F)Br)cc2)cc1Cl (stereo not drawn) | G | A (90–100) | E (50–59) | A (90–100) | A (90–100) | C (70–79)
6 | Cc1c(-c2nc(-c3c(F)cccc3Cl)nn2C)csc1-c1ccc(Cl)c(F)c1 | G | A (90–100) | A (90–100) | G | F (less than 50) | A (90–100)
7 | Cc1c(-c2nc(-c3c(F)cccc3Cl)nn2C)csc1-c1ccc(OC(F)(F)C(F)Cl)cc1 (stereo not drawn) | A (90–100) | A (90–100) | B (80–89) | A (90–100) | A (90–100) | A (90–100)
8 | Cc1sc(-c2cc(C(F)(F)F)ccc2F)cc1-c1nc(-c2c(F)cccc2Cl)nn1C | G | G | D (60–69) | F (less than 50) | G | G
